Measured values reported in the supplement of paper PMC10307832.

Legend:
Assay in all cases: relative viability (nuclei count vs DMSO), 5 days (fraction); higher = more cells survive
IU1-47 + OSI-027 = compound: CC1=CC(=C(N1C2=CC=C(C=C2)Cl)C)C(=O)CN3CCCCC3 [IU1-47] + COc1cccc2cc(-c3nc([C@H]4CC[C@H](C(=O)O)CC4)n4ncnc(N)c34)[nH]c12 [OSI-027] (partner 0.5 µM)
Method in brief: (§1)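 Nuclei were stained with Hoechst during a one-step fixation (final 0.05% Triton X-100, 1% formaldehyde, 1 ug/ml Hoechst) carried out 5 days after dosing, then counted on 4× images. The cells, lung cancer lines in 1536-well plates, had been dosed by pin tool the day after seeding with one drug alone or a fixed anchor-drug dose plus five library-drug doses (not always all listed) in √10 steps. Relative viability is the nuclei count in treated wells divided by that in vehicle wells, and each value is the median of duplicate plates.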

FG-4592 + Lapatinib = compound: Cc1nc(C(=O)NCC(=O)O)c(O)c2ccc(Oc3ccccc3)cc12 [FG-4592] + CS(=O)(=O)CCNCc1ccc(-c2ccc3ncnc(Nc4ccc(OCc5cccc(F)c5)c(Cl)c4)c3c2)o1 [Lapatinib] (partner 2 µM)
Method in brief: as §1

FG-4592 + Dasatinib = compound: Cc1nc(C(=O)NCC(=O)O)c(O)c2ccc(Oc3ccccc3)cc12 [FG-4592] + Cc1nc(Nc2ncc(C(=O)Nc3c(C)cccc3Cl)s2)cc(N2CCN(CCO)CC2)n1 [Dasatinib] (partner 0.075 µM)
Method in brief: as §1

IU1-47 + Pictilisib = compound: CC1=CC(=C(N1C2=CC=C(C=C2)Cl)C)C(=O)CN3CCCCC3 [IU1-47] + CS(=O)(=O)N1CCN(Cc2cc3nc(-c4cccc5[nH]ncc45)nc(N4CCOCC4)c3s2)CC1 [Pictilisib] (partner 1 µM)
Method in brief: as §1

Row | Cell Line | relative viability (IU1-47 + OSI-027; first compound 0.08 µM) | relative viability (IU1-47 + OSI-027; first compound 0.253 µM) | relative viability (IU1-47 + OSI-027; first compound 0.8 µM) | relative viability (IU1-47 + OSI-027; first compound 2.53 µM) | relative viability (IU1-47 + OSI-027; first compound 8 µM) | relative viability (FG-4592 + Lapatinib; first compound 0.08 µM) | relative viability (FG-4592 + Lapatinib; first compound 0.253 µM) | relative viability (FG-4592 + Lapatinib; first compound 2.53 µM) | relative viability (FG-4592 + Lapatinib; first compound 8 µM) | relative viability (FG-4592 + Dasatinib; first compound 0.08 µM) | relative viability (FG-4592 + Dasatinib; first compound 0.253 µM) | relative viability (FG-4592 + Dasatinib; first compound 0.8 µM) | relative viability (FG-4592 + Dasatinib; first compound 2.53 µM) | relative viability (FG-4592 + Dasatinib; first compound 8 µM) | relative viability (IU1-47 + Pictilisib; first compound 0.08 µM) | relative viability (IU1-47 + Pictilisib; first compound 0.253 µM) | relative viability (IU1-47 + Pictilisib; first compound 0.8 µM) | relative viability (IU1-47 + Pictilisib; first compound 2.53 µM) | relative viability (IU1-47 + Pictilisib; first compound 8 µM) | relative viability (FG-4592 + Lapatinib; first compound 0.8 µM)
1 | NCI-H596 | 0.817 | 0.62 | 0.743 | 0.814 | 0.739 | 1.04 | 1.01 | 1.02 | 0.847 | 0.573 | 0.736 | 0.418 | 0.537 | 0.562 | 0.393 | 0.367 | 0.405 | 0.429 | 0.393 | 
2 | H3255 | 0.654 | 0.675 | 0.624 | 0.465 | 0.561 | 0.275 | 0.235 | 0.257 | 0.26 | 0.361 | 0.418 | 0.417 | 0.404 | 0.48 | 0.542 | 0.431 | 0.488 | 0.537 | 0.522 | 0.271
3 | NCI-H647 | 0.744 | 0.605 |  | 0.7 | 0.478 | 1.13 | 1.01 | 1.08 | 1.04 | 0.186 | 0.202 | 0.145 | 0.172 | 0.183 | 0.467 | 0.52 | 0.453 |  | 0.359 | 1.23
4 | NCI-H2023 | 0.375 | 0.391 | 0.436 | 0.259 | 0.352 | 1.03 | 0.735 | 0.468 | 0.598 | 0.612 | 0.529 | 0.54 | 0.522 | 0.377 | 0.22 | 0.214 | 0.274 | 0.178 | 0.182 | 0.407
5 | NCI-H23 | 0.644 | 0.587 | 0.695 | 0.583 | 0.597 | 1.09 | 1.07 | 0.772 | 1.01 | 0.841 | 0.669 | 0.706 | 0.694 | 0.862 | 0.43 | 0.492 | 0.44 | 0.543 | 0.435 | 0.953
6 | NCI-H1944 | 0.401 | 0.357 | 0.411 | 0.444 | 0.376 | 0.712 | 0.759 | 0.71 | 0.768 | 0.251 | 0.207 | 0.177 | 0.199 | 0.202 | 0.361 | 0.371 | 0.335 |  | 0.356 | 0.576
7 | NCI-H1793 | 0.245 | 0.25 | 0.37 |  | 0.286 | 0.592 | 0.468 | 0.646 | 0.62 | 0.37 | 0.311 |  | 0.354 | 0.328 | 0.284 | 0.293 | 0.363 |  | 0.262 | 
8 | NCI-H520 | 0.261 | 0.27 | 0.305 | 0.3 | 0.206 | 0.754 | 0.758 | 0.793 | 0.721 | 0.171 | 0.206 | 0.133 | 0.157 | 0.157 | 0.303 | 0.297 | 0.378 | 0.331 | 0.237 | 0.828
9 | NCI-H460 | 0.795 | 0.737 | 0.835 | 0.822 | 0.505 | 0.923 | 0.768 | 0.94 | 1.1 | 0.527 | 0.511 | 0.43 | 0.457 | 0.368 | 0.385 | 0.284 | 0.381 | 0.359 | 0.345 | 1.05
10 | EKVX | 0.858 | 0.862 | 0.726 | 0.658 | 0.828 | 0.226 | 0.213 | 0.278 | 0.375 | 0.629 | 0.555 | 0.53 | 0.486 | 0.495 | 0.555 | 0.549 | 0.459 | 0.487 | 0.463 | 0.195
11 | NCI-H358 | 0.889 | 1.15 | 1.04 | 0.676 | 0.82 | 0.501 | 0.413 | 0.437 | 0.453 | 0.16 | 0.19 | 0.162 | 0.145 | 0.156 | 0.287 | 0.323 | 0.352 |  | 0.366 | 0.497
12 | EPLC-272H | 0.326 | 0.325 | 0.253 |  | 0.259 | 1.12 | 0.795 | 0.962 | 0.916 | 0.389 | 0.302 | 0.251 | 0.412 | 0.334 | 0.301 | 0.318 | 0.313 |  | 0.185 | 0.586
13 | NCI-H1563 | 0.809 | 0.782 | 0.785 | 0.757 | 0.663 | 0.873 | 0.829 | 1.04 | 0.809 | 0.465 | 0.465 | 0.397 | 0.466 | 0.44 | 0.69 | 0.672 | 0.663 | 0.627 | 0.732 | 0.779
14 | NCI-H1395 | 0.58 | 0.621 | 0.665 | 0.387 | 0.554 | 1.19 | 0.935 | 0.967 | 0.662 | 0.446 | 0.416 | 0.373 | 0.364 | 0.365 | 0.597 | 0.65 | 0.569 |  | 0.433 | 
15 | NCI-H2126 | 0.729 | 0.883 | 0.673 | 0.539 | 0.649 | 0.672 | 0.708 | 0.613 | 0.589 | 0.642 | 0.578 | 0.476 | 0.506 | 0.384 | 0.47 | 0.477 | 0.52 | 0.382 | 0.493 | 0.604
16 | LXF-289 | 0.913 | 0.768 | 0.811 | 0.591 | 0.736 | 0.93 | 0.881 | 0.946 | 0.945 | 0.22 | 0.186 | 0.19 | 0.168 | 0.189 | 0.8 | 0.754 | 0.772 | 0.822 | 0.688 | 0.937
17 | NCI-H2009 | 0.662 | 0.672 | 0.676 | 0.558 | 0.593 | 1.02 | 0.878 | 0.735 | 0.924 | 0.323 | 0.172 | 0.267 | 0.283 | 0.27 | 0.876 | 0.948 | 0.815 | 0.369 | 0.882 | 0.888
